This experiment concerns the target T1, Recombinant human LTC4 synthase (Homo sapiens, UniProt Q16873).
T1 construct: made in house; host or cells: Pichia pastoris ('Piccia pastoralis' [sic])
T1 sequence (Q16873 1-150): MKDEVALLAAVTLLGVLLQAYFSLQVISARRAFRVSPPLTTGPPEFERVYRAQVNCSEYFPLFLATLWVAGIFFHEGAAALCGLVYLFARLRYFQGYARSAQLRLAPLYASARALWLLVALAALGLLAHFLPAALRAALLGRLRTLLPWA
As to the kind of experiment: LTC4 synthase assay (conversion of LTA4 methyl ester to LTC4 methyl ester, HPLC). The class given is biochemical. The settings on record: for inhibition at 10 µM: inhibitor concentration 10 μM, read-out: Percantage Inhibition at 10 μM (unless specified otherwise). On the procedure:
In the assay LTC4 synthase catalyses the reaction where the substrate LTA4 methyl ester is converted to LTC4 methyl ester. Recombinant human LTC4 synthase is expressed in Piccia pastoralis and the purified enzyme is dissolved in 25 mM Tris-buffer pH 7.8 and stored at −20° C. The assay is performed in phosphate buffered saline (PBS) pH 7.4, supplemented with 5 mM glutathione (GSH). The reaction is terminated by addition of acetonitrile/MeOH/acetic acid (50/50/1). The assay is performed at rt in 96-well plates. Analysis of the formed LTC4 methyl ester is performed with reversed phase HPLC (Waters 2795 utilizing an Onyx Monolithic C18 column). The mobile phase consists of acetonitrile/MeOH/H2O (32.5/30/37.5) with 1% acetic acid pH adjusted with NH3 to pH 5.6, and absorbance measured at 280 nm with a Waters 2487 UV-detector.
The following is added chronologically to each well: • 1. 50 μl assay buffer, PBS with 5 mM GSH. • 2. 0.5 μl inhibitor in DMSO. • 3. 2 μl LTC4 synthase in PBS. The total protein concentration in this solution is 0.025 mg/ml. Incubation of the plate at room temperature for 10 minutes. • 4. 0.5 μl LTA4 methyl ester. Incubation of the plate at rt for 1 min. • 5. 50 μl stop solution. 80 μl of the incubation mixture is analysed with HPLC.

Turning to `O=C(c1ccc(Nc2ccc(Cl)cc2)cc1)c1ccc(Oc2ccc(F)c(F)c2)c(C(=O)O)c1` [8:3, 5-[4-(4-Chloro-phenylamino)-benzoyl]-2-(3,4-difluoro-phenoxy)-benzoic acid], the inhibition at 10 µM is 100%.
Turning to `CN(c1ccc(Cl)cc1)c1ccc(C(=O)c2ccc(Oc3ccccc3OC(F)(F)C(F)F)c(C(=O)O)c2)cc1` [6:8, 5-{4-[(4-Chloro-phenyl)-methyl-amino]-benzoyl}-2-[2-(1,1,2,2-tetrafluoro-ethoxy)-phenoxy]-benzoic acid], the inhibition at 10 µM worked out at 98%.
As to `O=C(c1ccc(NS(=O)(=O)c2ccc(Cl)c(Cl)c2)c(C(=O)O)c1)c1ccc(NS(=O)(=O)c2ccc(Cl)c(Cl)c2)c(C(=O)O)c1` [Example 5, 2-((3,4-dichlorophenyl)sulfonyl-amino)-5-(3-carboxy-4-(((3,4-dichlorophenyl)sulfonyl)amino)-benzoyl)benzoic acid], the inhibition at 10 µM is 98%.
As for `O=C(Nc1ccc(C(=O)c2ccc(Nc3ccc(F)c(F)c3)c(C(=O)O)c2)cc1)Nc1cccc(Cl)c1` [5:1, 5-{4-[3-(3-Chloro-phenyl)-ureido]-benzoyl}-2-(3,4-difluoro-phenylamino)-benzoic acid], the inhibition at 10 µM is 95%.
With `O=C(c1ccc(Nc2ccc(F)c(F)c2)c(C(=O)O)c1)c1ccc(Nc2ccc(F)c(F)c2)c(C(=O)O)c1` [Example 1, 2-(3,4-difluorophenylamino)-5-((4-(3,4-difluorophenylamino)-3-carboxyphenylcarbonyl))benzoic acid], the inhibition at 10 µM was 93%.
On to `O=C(c1ccc(Nc2ccc(F)c(F)c2)cc1)c1ccc(Nc2ccc(F)c(F)c2)c(C(=O)O)c1` [5:3, 2-(3,4-Difluoro-phenylamino)-5-[4-(3,4-difluoro-phenylamino)-benzoyl]-benzoic acid], for which the inhibition at 10 µM turned out to be 84%.
`O=C(c1ccc(NC(=O)c2ccccc2Cl)cc1)c1ccc(Nc2ccc(F)c(F)c2)c(C(=O)O)c1` [5:5, 5-[4-(2-Chloro-benzoylamino)-benzoyl]-2-(3,4-difluoro-phenylamino)-benzoic acid]: the inhibition at 10 µM is 97%.
On to `CN(c1ccc(Cl)cc1)c1ccc(C(=O)c2ccc(Nc3ccc(C(F)(F)F)cc3)c(C(=O)O)c2)cc1` [9:3, 5-{4-[(4-Chloro-phenyl)-methyl-amino]-benzoyl}-2-(4-trifluoromethyl-phenylamino)-benzoic acid], for which the inhibition at 10 µM came to 86%.
Consider `CC(C)Oc1ccc(C(=O)Nc2ccc(C(=O)c3ccc(Nc4ccc(F)c(F)c4)c(C(=O)O)c3)cc2)cc1` [Example 15, 2-(3,4-difluorophenylamino)-5-(4-(4-isopropoxybenzamido)benzoyl)benzoic acid], for which the inhibition at 10 µM is 68%.
As for `O=C(c1ccc(Nc2ccc(Cl)cc2)cc1)c1ccc(Nc2ccc(F)c(F)c2)c(C(=O)O)c1` [Example 16, 5-(4-(4-chlorophenylamino)-benzoyl)-2-(3,4-difluoro-phenylamino)benzoic acid], the inhibition at 10 µM turned out to be 94%.
Same read-out and setting: with `CN(c1ccc(Cl)cc1)c1ccc(C(=O)c2ccc(Nc3ccccc3C(F)(F)F)c(C(=O)O)c2)cc1` [9:2, 5-{4-[(4-Chloro-phenyl)-methyl-amino]-benzoyl}-2-(2-trifluoromethyl-phenylamino)-benzoic acid] the figure was 55%.
Same read-out and setting: under `O=C(Nc1ccc(C(=O)c2ccc(NS(=O)(=O)c3ccc(Cl)cc3)cc2)cc1C(=O)O)c1cccc(Cl)c1` [7:11, 5-[4-(4-Chloro-benzenesulfonylamino)-benzoyl]-2-(3-chloro-benzoylamino)-benzoic acid] stands 98%.
For the molecule `O=C(c1ccc(NC(=O)c2ccc(Cl)cc2Cl)c(C(=O)O)c1)c1ccc(NC(=O)c2ccc(Cl)cc2Cl)c(C(=O)O)c1` [Example 10, 2-(2,4-dichlorobenzamido)-5-(4-(2,4-dichlorobenzamido)-3-carboxyphenylcarbonyl)-benzoic acid], the inhibition at 10 µM turned out to be 82%.
With `O=C(c1ccc(NS(=O)(=O)c2ccc([N+](=O)[O-])cc2)c(C(=O)O)c1)c1ccc(NS(=O)(=O)c2ccc([N+](=O)[O-])cc2)c(C(=O)O)c1` [Example 4, 2-((4-nitrophenyl)sulfonylamino)-5-(3-carboxy-4-(((4-nitrophenyl)-sulfonyl)amino)benzoyl)benzoic acid], the IC50 was found to be 191 nM and the inhibition at 10 µM came out at 100%.
With `CC(C)Oc1ccc(Nc2ccc(C(=O)c3ccc(Nc4ccc(OC(C)C)cc4)c(C(=O)O)c3)cc2C(=O)O)cc1` [Example 2, 2-(4-isopropoxyphenylamino)-5-(4-(4-isopropoxyphenylamino)-3-carboxyphenylcarbonyl)benzoic acid], the IC50 turned out to be 258 nM and the inhibition at 10 µM is 99%.
Take `O=C(c1ccc(NS(=O)(=O)c2ccc(Cl)cc2)cc1)c1ccc(NC(=O)c2cc(Cl)ccc2O)c(C(=O)O)c1` [7:8, 5-[4-(4-Chloro-benzenesulfonylamino)-benzoyl]-2-(5-chloro-2-hydroxy-benzoylamino)-benzoic acid]: the inhibition at 10 µM is 96%.
Still for that read-out and setting: with `O=C(c1ccc(NS(=O)(=O)c2ccc(Cl)cc2)cc1)c1ccc(NC(=O)c2cccc(Cl)c2Cl)c(C(=O)O)c1` [7:10, 5-[4-(4-Chloro-benzenesulfonylamino)-benzoyl]-2-(2,3-dichloro-benzoylamino)-benzoic acid] the figure was 99%; with `CN(c1ccc(F)c(F)c1)c1ccc(C(=O)c2ccc(NC(=O)c3cc(Cl)ccc3O)cc2)cc1C(=O)O` [Example 18, 5-(4-(5-chloro-2-hydroxy-benzamido)benzoyl)-2-((3,4-difluorophenyl)(methyl)-amino)benzoic acid], 100%.
In the case of `CN(c1ccc(Cl)cc1)c1ccc(C(=O)c2ccc(N(C)c3ccc(Cl)cc3)c(C(=O)O)c2)cc1C(=O)O` [11:2, 5-{3-Carboxy-4-[(4-chlorophenyl)-methyl-amino]benzoyl}-2-[(4-chloro-phenyl)-methyl-amino]benzoic acid], the inhibition at 10 µM worked out at 82%.
Turning to `CCCCCCC(=O)Nc1ccc(C(=O)c2ccc(NC(=O)c3ccc(Cl)cc3Cl)c(C(=O)O)c2)cc1` [14:2, 2-(2,4-Dichloro-benzoylamino)-5-(4-heptanoylamino-benzoyl)-benzoic acid], the inhibition at 10 µM is 100%.
Same read-out and setting: with `CN(c1ccc(Cl)cc1)c1ccc(C(=O)c2ccc(NC(=O)c3cccc(Cl)c3Cl)c(-c3nnn[nH]3)c2)cc1` [10:4, 2,3-Dichloro-N-[4-{4-[(4-chloro-phenyl)-methyl-amino]-benzoyl}-2-(1H-tetrazol-5-yl)-phenyl]-benzamide] the figure was 77%; with `CN(c1ccc(Cl)cc1)c1ccc(C(=O)c2ccc(Oc3cccc(Cl)c3)c(C(=O)O)c2)cc1` [6:2, 2-(3-Chloro-phenoxy)-5-{4-[(4-chloro-phenyl)-methyl-amino]-benzoyl}-benzoic acid], 96%; with `CN(c1ccc(Cl)cc1)c1ccc(C(=O)c2ccc(Oc3ccc(F)c(F)c3)c(C(=O)O)c2)cc1` [6:3, 5-{4-[(4-Chloro-phenyl)-methyl-amino]-benzoyl}-2-(3,4-difluoro-phenoxy)-benzoic acid], 90%.
Regarding `CN(c1ccc(Cl)cc1)c1ccc(C(=O)c2ccc(Nc3cccc(C(F)(F)F)c3)c(C(=O)O)c2)cc1` [9:1, 5-{4-[(4-Chloro-phenyl)-methyl-amino]-benzoyl}-2-(3-trifluoromethyl-phenylamino)-benzoic acid], the inhibition at 10 µM stood at 90%.
Consider `O=C(c1ccc(Nc2ccc(Cl)cn2)cc1)c1ccc(Nc2ccc(F)c(F)c2)c(C(=O)O)c1` [5:6, 5-[4-(5-Chloro-pyridin-2-ylamino)-benzoyl]-2-(3,4-difluoro-phenylamino)-benzoic acid], for which the inhibition at 10 µM turned out to be 84%.
As to `CN(c1ccc(F)c(F)c1)c1ccc(C(=O)c2ccc(Nc3ccc(Cl)cc3)cc2)cc1C(=O)O` [Example 19, 5-(4-(4-chlorophenylamino)-benzoyl)-2-((3,4-difluoro-phenyl)(methyl)amino)-benzoic acid], the inhibition at 10 µM is 75%.
`CN(c1ccc(Cl)cc1)c1ccc(C(=O)c2ccc(Oc3cccc(Cl)c3F)c(C(=O)O)c2)cc1` [6:6, 2-(3-Chloro-2-fluoro-phenoxy)-5-{4-[(4-chloro-phenyl)-methyl-amino]-benzoyl}benzoic acid]: the inhibition at 10 µM stood at 83%.
As for `O=C(Nc1ccc(C(=O)c2ccc(Oc3ccc(F)c(F)c3)c(C(=O)O)c2)cc1)c1cccc(Cl)c1` [8:4, 5-[4-(3-Chloro-benzoylamino)-benzoyl]-2-(3,4-difluoro-phenoxy)-benzoic acid], the inhibition at 10 µM worked out at 88%.
In the case of `CCCCc1ccc(C(=O)Nc2ccc(C(=O)c3ccc(NC(=O)c4ccc(CCCC)cc4)c(C(=O)O)c3)cc2C(=O)O)cc1` [Example 3, 2-(4-butylbenzamido)-5-(4-(4-butylbenzamido)-3-carboxy-phenylcarbonyl)benzoic acid], the inhibition at 10 µM was found to be 98%.
